# Test results as given in patent US20040072222A1, “Peptide analogues of myelin basic protein epitopes in the treatment of experimental autoimmune encephalomyelitis (eae) and multiple sclerosis (ms)” (priority 2003, published 2004).
# “Also recorded” adds a separate entry of the source. Where two headings read alike, the source gives them in different places. Where no end group is shown, it is not given here.
# Assays:
# EAE in Lewis rats [1] = test: Induction-inhibition and assessment of EAE (clinical score); type: in vivo; conditions: for inhibition of MBP72-85-induced EAE (clinical signs) on co-injection: co-injected with MBP72-85, Lewis rats; for induction of EAE: injected subcutaneously in Lewis rats; for peak clinical score, day following the initial injection / recovery from EAE: injected subcutaneously in Lewis rats (section B2); for inhibition of MBP72-85-induced EAE on co-injection: analogue 500 μg co-injected with MBP72-85 25 μg, FIG. 2/3
# [2] = system: demyelination and inflammation in the spinal cord; test: Histopathological examination of spinal cord sections (Luxol fast blue / Nuclear Fast Red); type: in vivo, Lewis rats; conditions: for spinal cord demyelination and inflammation on co-immunization with MBP72-85: day 15 after immunization
# [3] = system: human peripheral blood T cells; test: Activation and proliferation of human peripheral blood T cells; type: cell-based; conditions: for reversal of agonist effect on human T cell activation and proliferation: co-culturing of the cells with antagonist peptide; for biological activity in human peripheral blood T cells relative to linear analogue: compared with linear MBP72-85 / Ala81MBP72-85; for effect on human T cell activation and proliferation: agonist peptides, linear vs cyclic
# EAE in Lewis rats [4] = conditions: cited from earlier work
substance,measurement,setting,value
Gln-Lys-Ser-Gln-Arg-Ser-Gln-Ala^81-GluAsn-Pro-Val [Ala^81MBP72-85],suppression of EAE induced by cyclic analogue on co-injection,EAE in Lewis rats [1]; co-injection with the inducing cyclic analogue,completely suppressed
same,spinal cord demyelination and inflammation on co-immunization with MBP72-85,[2],complete absence of inflammation and demyelination
same,reversal of agonist effect on human T cell activation and proliferation,[3],completely reversed
same,prevention of clinical and histopathological manifestations of disease induced by c-MBP72-85,EAE in Lewis rats [4]; Tselios et al 1999,prevented
same,prevention of the induction of EAE by parent peptide MBP72-85,"EAE in Lewis rats [4]; background, literature",prevented the induction of EAE
Gln^1-Lys^2-Ser^3-Gln^4-Arg^5-Ser^6-Gln^7-Ala^8-Glu^9-Asn^10-Pro^11-Val^12-NH2 [c-Ala^81MBP72-85],inhibition of MBP72-85-induced EAE (clinical signs) on co-injection,EAE in Lewis rats [1],completely prevented
same,spinal cord demyelination and inflammation on co-immunization with MBP72-85,[2],completely prevented
same,reversal of agonist effect on human T cell activation and proliferation,[3],completely reversed
same,biological activity in human peripheral blood T cells relative to linear analogue,[3],comparable
Gln^1-Lys^2-Ser^3-Gln^4-Arg^5-Ser^6-Gln^7-Asp^8-Glu^9-Asn^10-Pro^11-Val^12-NH2 [c-MBP72-85],induction of EAE,EAE in Lewis rats [1],induce EAE
same,"peak clinical score, day following the initial injection",EAE in Lewis rats [1],15 days
same,recovery from EAE,EAE in Lewis rats [1],eventual complete recovery in all animals
same,induction of EAE,EAE in Lewis rats [1]; listed as 1,comparable with that of linear agonist
same,effect on human T cell activation and proliferation,[3],comparable effect
same,biological activity in human peripheral blood T cells relative to linear analogue,[3],comparable
same,induction of EAE,"EAE in Lewis rats [4]; background, literature",comparable potency to MBP72-85
"QKSQRSQDENPV [MBP72-85, reference compound]",complete recovery in all animals,EAE in Lewis rats [1]; 25 μg peptide,≤ 18 days
same,"peak clinical score, day after the initial injection",EAE in Lewis rats [1]; 25 μg peptide,13 days
same,induction of EAE,EAE in Lewis rats [1],induced an acute monophasic disease; also recorded: induce EAE
same,"peak clinical score, day following the initial injection",EAE in Lewis rats [1],15 days
same,recovery from EAE,EAE in Lewis rats [1],eventual complete recovery in all animals
same,spinal cord histopathology after immunization with the peptide alone,[2]; day 15 / peak of disease,extensive perivascular and parenchymal inflammation; also recorded: multiple perivascular infiltrates
same,effect on human T cell activation and proliferation,[3],comparable effect
same,induction of EAE,"EAE in Lewis rats [4]; background, literature",induce EAE
"Val-His-Phe-Phe-Arg^91-Asn-Ile-Val-Thr-Ala^96-Arg-Thr-Pro [[Arg^91,Ala^96]MBP87-99]",inhibition of MBP72-85-induced EAE on co-injection,EAE in Lewis rats [1],completely prevented
same,inhibition of MBP72-85-induced EAE (clinical signs) on co-injection,EAE in Lewis rats [1],completely prevented
"Val-His-Phe-Phe-Lys^91-Asn-Ile-Val-Thr-Ala^96-Arg-Thr-Pro^99 [cyclo-(91, 99) [Ala^96] MBP87-99]",inhibition of MBP72-85-induced EAE on co-injection,EAE in Lewis rats [1],low inhibitory activity
"Val^87-His-Phe-Phe-Arg^91-Asn-Ile-Val-Thr-Ala^96-Arg-Thr-Pro^99 [cyclo-(87, 99)[Arg^91,Ala^96]MBP87-99]",inhibition of MBP72-85-induced EAE on co-injection,EAE in Lewis rats [1],strong inhibitor
same,inhibition of MBP72-85-induced EAE (clinical signs) on co-injection,EAE in Lewis rats [1],completely prevented
